Here are results for 1 compound from US20260240968A1, “METHODS AND MODIFICATIONS FOR REDUCING INNATE IMMUNE RESPONSES TO RNA” (The Board of Trustees of the Leland Stanford Junior …, priority 2023, published 2026).

A value given as a limit tells only on which side of the number the result lay.

The subject of experiment [1] is HEK293 cells. Description: Luminex human 48-plex analysis of cytokines and immune activation markers released from HEK293 cells lipofected with eGFP-mRNA with or without cloaking. The format is cell-based. On the procedure:
As an initial assessment of how cloaking affects the innate immune responses of mRNA, we measured the release of cytokines and immune activation markers from HEK293 cells that were lipofected by eGFP-mRNA with or without cloaking. HEK293 cells were transfected with 2 μg of mRNA with lipofectamine MessengerMax. […] In comparison. […] The translation of eGFP-mRNA was insignificant at this time (6 hours post-transfection), so the release of these immunomodulatory cytokines/chemokines is largely due to cells sensing the mRNA.
We further evaluated the effect of 2′-acylation on long-term immune response with Luminex human 48-plex assays in HEK293 cells that were transfected with modified eGFP-mRNA (FIG. 3 and FIG. 4).
We next investigated whether the chemical structure of acylating reagents may differentially modulate certain innate immune response pathways. […] Because the maximum level of cloaking varied among these reagents, we proceeded to equimolarly cloak at ~50% of unpaired accessible 2′-hydroxyls of eGFP-mRNA with a similar level of modification. We measured the release of cytokines and immune activation markers from HEK293 cells that were lipofected by modified eGFP-mRNA with or without cloaking. HEK293 cells were transfected with 2 μg of mRNA aliquots with lipofectamine MessengerMax. […] Thus, acylating reagents with diverse chemical structures can differentially modulate certain innate immune-responsive pathways.

Experiment [2] concerns HEK293 cells. Description: Spontaneous restoration of translation of cloaked GFP-mRNA (green fluorescence) in HEK293 cells. As to conditions: normal cells (HEK293).
Description: (§1) Thus, we investigated whether adducts by N,N-dimethylglycine acylimidazole can spontaneously release within the cells. To explored this, we employed cloaked mRNAs encoding a green fluorescence protein (GFP) (FIG. 6).
We screened these acylimidazole reagents for spontaneous restoration of mRNA translation in HEK293 cells by transfection with d2GFP-mRNA aliquots that were acylated with these acylimidazole reagents at various levels of 2′-modification. We monitored the green fluorescence signal in HEK293 cells over three days.
Experiment [3] relates to HeLa cells.
Description: as §1
The subject of experiment [4] is SW480 cells. The note with it: cancerous cells (SW480); cloaked mRNA.
Description: as §1
The test system of experiment [5] is ISG15. Description: RT-qPCR of ISG15 mRNA expression (Type I innate immune response via the RIG-1 pathway) in HEK293 cells lipofected with eGFP-mRNA. It counts as cell-based, human. The note with it: HEK293 lipofected by eGFP-mRNA with or without cloaking by DMG-Im. An excerpt:
Transfection of in vitro transcribed RNA can trigger a potent Type I innate immune response in HEK293 cells (PMID: 30011268). Next, we investigated whether cloaking may modulate such response in HEK293 cells. To do this, HEK293 cells were lipofected by eGFP-mRNA with or without cloaking by DMG-Im. We measured the mRNA expression level of ISG15, an activation marker downstream of Type I innate immune response via the RIG-1 pathway.
Transfection of in vitro transcribed RNA can trigger a potent Type I innate immune response in HEK293 cells (PMID: 30011268). Next, we investigated whether cloaking may modulate such response in HEK293 cells. To do this, HEK293 cells were lipofected by eGFP-mRNA with or without cloaking by DMG-lm. We measured the mRNA expression level of ISG15, an activation marker downstream of Type I innate immune response via the RIG-1 pathway.
For orientation: In qPCR the cycle at which signal appears reflects the starting amount.

Where [6] appears, read: long-term immune response, HEK293 transfected with modified eGFP-mRNA.

Consider `CN(C)CC(=O)n1ccnc1` [DMG-Im, N,N-dimethylglycine acylimidazole], for which the “expression of some proinflammatory cytokines and immune activation markers over time” value in experiment [1] (FIGS. 3A-3B, cloaking by DMG-Im) is “potently modulates”. Also, in experiment [1] (HEK293 transfected with 2 μg of eGFP-mRNA, lipofectamine MessengerMax, six hours post-transfection), the “release of proinflammatory chemokines and cytokines, including VEGF, RANTES/CCL5, PDGFAA, and IL8” value was “potently suppressed”. In addition, in experiment [1] (RNA cloaked with the R group, FIGS. 9 and 10), the “expression profiles of immune response mediators including type I interferon, CCL5, IL-8, IL-3, VEGF” value is on record as “distinct expression profiles”. The “expression of many mRNA-stimulated cytokines” value in experiment [1] (cloaked vs unmodified eGFP-mRNA, six hours post-transfection) is listed as “not significantly modulated”. In addition, the “reduction of the release of proinflammatory cytokines and activation (VEGF, RANTES/CCL5, PDGFAA, IL8)” value in experiment [1] (eGFP-mRNA with intermediate cloaking (~50% of unpaired 2′-hydroxyls) vs unmodified, 2 μg, six hours post-transfection) was at most 90%. Also, in experiment [1] (setting [6]), the “release of Granulocyte-macrophage colony-stimulating factor (GMCSF) over time” value is recorded as “increasingly suppressed overtime”, the “release of proinflammatory Chemokine ligand 5 (CCL5) over time” value was “increasingly suppressed overtime” and the “secretion of Vascular endothelial growth factor (VEGF) over time” value was “increasingly less suppressed over time”. In experiment [2], the “translation of GFP-mRNA with N,N-dimethylglycine adducts” value (from here on “translation of GFP-mRNA”) is “spontaneously restored”. In experiment [3] (HeLa cells, d2GFP-mRNA cloaked with DMG-Im), the “extension of the translational lifespan of mRNA encoding destabilized green fluorescent protein d2GFP” value amounted to 31%. In addition, the “translation of GFP-mRNA” value in experiment [3] (cancerous cells (HeLa), cloaked mRNA) is “spontaneously restored”. The “translation of GFP-mRNA” value in experiment [4] is “spontaneously restored”. Also, the “mRNA expression level of ISG15” value in experiment [5] is recorded as “almost fully suppressed”.
